According to the kinase profiling compilation of Christmann-Franck et al. (2016):

What was measured:
Experiment in all cases: radiometric filter-binding kinase assay
BRSK1 (human) = BRSK1 (human) (UniProt Q8TDC3)
BTK (human) = BTK (human) (UniProt Q06187)
CAMKK2 (human) = CAMKK2 (human) (UniProt Q96RR4)
CDK2 CCNA2 (human) = CDK2 CCNA2 (human) (UniProt P20248+P24941)
CSK (human) = CSK (human) (UniProt P41240)
CaMK1 (human) = CaMK1 (human) (UniProt Q14012)
DYRK2 (human) = DYRK2 (human) (UniProt Q92630)
EPHA2 (human) = EPHA2 (human) (UniProt P29317)
EPHA4 (human) = EPHA4 (human) (UniProt P54764)
EPHB2 (human) = EPHB2 (human) (UniProt P29323)
ERBB4 (human) = ERBB4 (human) (UniProt Q15303)
HIPK3 (human) = HIPK3 (human) (UniProt Q9H422)
INSR (human) = INSR (human) (UniProt P06213)
INSRR (human) = INSRR (human) (UniProt P14616)
JAK2 JH1 JH2 (human) = JAK2 JH1 JH2 (human) (UniProt O60674)
LCK (mouse) = details: accession and sequence are those of the human protein
MAP2K1 (human) = MAP2K1 (human) (UniProt Q02750)
MAPK15 (human) = MAPK15 (human) (UniProt Q8TD08)
MAPKAPK2 (human) = MAPKAPK2 (human) (UniProt P49137)
MARK1 (human) = MARK1 (human) (UniProt Q9P0L2); details: compound 10.0 µM
MARK2 (human) = MARK2 (human) (UniProt Q7KZI7)
MINK1 (human) = MINK1 (human) (UniProt Q8N4C8)
MKNK1 (human) = MKNK1 (human) (UniProt Q9BUB5)
MST4 (human) = MST4 (human) (UniProt Q9P289)
NEK2 (human) = NEK2 (human) (UniProt P51955)
NEK6 (human) = NEK6 (human) (UniProt Q9HC98)
NUAK1 (human) = NUAK1 (human) (UniProt O60285)
PAK7 (human) = PAK7 (human) (UniProt Q9P286)
PHKG1 (human) = PHKG1 (human) (UniProt Q16816)
PRKAA1 or PRKAA2 (rat) = details: accession and sequence are those of the human protein
PRKACA (human) = PRKACA (human) (UniProt P17612)
PRKCA (human) = PRKCA (human) (UniProt P17252)
RIPK2 (human) = RIPK2 (human) (UniProt O43353)
RPS6KA5 KD1 KD2 (human) = RPS6KA5 KD1 KD2 (human) (UniProt O75582)
SRPK1 (human) = SRPK1 (human) (UniProt Q96SB4)

Sequence of MST4 (human) (Q9P289 whole entry, looked up): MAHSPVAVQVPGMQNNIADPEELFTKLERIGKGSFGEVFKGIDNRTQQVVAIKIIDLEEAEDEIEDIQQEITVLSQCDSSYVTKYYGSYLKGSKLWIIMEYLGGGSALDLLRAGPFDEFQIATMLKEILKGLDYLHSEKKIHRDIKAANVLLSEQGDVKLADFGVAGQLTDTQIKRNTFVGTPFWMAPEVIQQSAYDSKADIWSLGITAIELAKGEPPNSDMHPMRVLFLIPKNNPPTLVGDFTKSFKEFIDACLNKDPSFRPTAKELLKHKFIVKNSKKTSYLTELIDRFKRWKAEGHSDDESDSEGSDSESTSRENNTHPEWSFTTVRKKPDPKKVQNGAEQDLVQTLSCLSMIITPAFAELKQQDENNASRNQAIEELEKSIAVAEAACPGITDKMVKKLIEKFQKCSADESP
Sequence of RPS6KA5 KD1 KD2 (human) (O75582 whole entry, looked up): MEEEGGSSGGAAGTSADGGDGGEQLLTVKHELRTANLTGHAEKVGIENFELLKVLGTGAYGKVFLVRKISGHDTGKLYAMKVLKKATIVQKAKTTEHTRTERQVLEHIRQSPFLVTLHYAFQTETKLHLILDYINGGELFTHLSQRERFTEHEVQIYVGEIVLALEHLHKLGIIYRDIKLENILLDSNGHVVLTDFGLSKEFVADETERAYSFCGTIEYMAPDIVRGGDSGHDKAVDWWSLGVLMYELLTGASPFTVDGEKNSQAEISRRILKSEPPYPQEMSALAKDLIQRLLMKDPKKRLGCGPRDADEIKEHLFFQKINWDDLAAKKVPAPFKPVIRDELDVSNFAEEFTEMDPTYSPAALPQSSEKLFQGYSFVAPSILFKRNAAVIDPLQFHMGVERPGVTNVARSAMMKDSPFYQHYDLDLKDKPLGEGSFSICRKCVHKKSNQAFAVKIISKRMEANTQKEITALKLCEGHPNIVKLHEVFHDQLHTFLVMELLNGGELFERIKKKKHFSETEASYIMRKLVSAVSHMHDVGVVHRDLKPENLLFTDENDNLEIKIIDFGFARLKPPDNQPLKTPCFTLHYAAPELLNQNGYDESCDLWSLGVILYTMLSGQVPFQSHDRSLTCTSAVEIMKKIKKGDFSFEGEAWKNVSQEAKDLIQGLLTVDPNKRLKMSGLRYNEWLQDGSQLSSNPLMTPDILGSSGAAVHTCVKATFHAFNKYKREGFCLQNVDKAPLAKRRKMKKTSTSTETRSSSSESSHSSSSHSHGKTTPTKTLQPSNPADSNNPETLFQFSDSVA
Sequence of NEK6 (human) (Q9HC98 whole entry, looked up): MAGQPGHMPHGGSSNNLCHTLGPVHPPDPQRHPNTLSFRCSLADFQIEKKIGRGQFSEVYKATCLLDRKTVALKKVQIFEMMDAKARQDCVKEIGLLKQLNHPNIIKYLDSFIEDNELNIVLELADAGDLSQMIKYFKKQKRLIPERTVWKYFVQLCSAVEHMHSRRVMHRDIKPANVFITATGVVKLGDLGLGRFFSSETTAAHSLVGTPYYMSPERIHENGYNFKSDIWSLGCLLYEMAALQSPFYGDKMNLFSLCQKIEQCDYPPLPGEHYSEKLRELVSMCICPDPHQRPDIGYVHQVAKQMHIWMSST
Sequence of MARK2 (human) (Q7KZI7 whole entry, looked up): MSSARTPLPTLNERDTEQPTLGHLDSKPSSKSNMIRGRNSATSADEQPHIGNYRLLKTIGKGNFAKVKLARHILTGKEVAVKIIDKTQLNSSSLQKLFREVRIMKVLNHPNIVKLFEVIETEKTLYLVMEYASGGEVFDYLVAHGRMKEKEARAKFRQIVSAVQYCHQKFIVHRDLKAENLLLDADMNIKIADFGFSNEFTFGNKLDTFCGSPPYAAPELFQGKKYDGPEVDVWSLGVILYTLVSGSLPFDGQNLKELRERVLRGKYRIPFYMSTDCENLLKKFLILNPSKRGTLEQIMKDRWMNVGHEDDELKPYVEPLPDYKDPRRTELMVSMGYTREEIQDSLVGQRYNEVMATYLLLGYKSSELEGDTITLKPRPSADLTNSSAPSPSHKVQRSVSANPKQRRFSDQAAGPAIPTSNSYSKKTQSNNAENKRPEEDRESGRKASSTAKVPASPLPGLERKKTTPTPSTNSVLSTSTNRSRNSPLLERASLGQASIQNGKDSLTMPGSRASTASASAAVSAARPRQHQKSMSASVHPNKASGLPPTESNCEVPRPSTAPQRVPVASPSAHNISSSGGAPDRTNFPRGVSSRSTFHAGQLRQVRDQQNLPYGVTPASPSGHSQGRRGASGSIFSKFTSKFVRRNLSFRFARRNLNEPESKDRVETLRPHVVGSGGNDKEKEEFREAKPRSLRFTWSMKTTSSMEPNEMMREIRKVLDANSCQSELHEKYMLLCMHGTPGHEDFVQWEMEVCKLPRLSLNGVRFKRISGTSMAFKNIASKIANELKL
Sequence of JAK2 JH1 JH2 (human) (O60674 whole entry, looked up): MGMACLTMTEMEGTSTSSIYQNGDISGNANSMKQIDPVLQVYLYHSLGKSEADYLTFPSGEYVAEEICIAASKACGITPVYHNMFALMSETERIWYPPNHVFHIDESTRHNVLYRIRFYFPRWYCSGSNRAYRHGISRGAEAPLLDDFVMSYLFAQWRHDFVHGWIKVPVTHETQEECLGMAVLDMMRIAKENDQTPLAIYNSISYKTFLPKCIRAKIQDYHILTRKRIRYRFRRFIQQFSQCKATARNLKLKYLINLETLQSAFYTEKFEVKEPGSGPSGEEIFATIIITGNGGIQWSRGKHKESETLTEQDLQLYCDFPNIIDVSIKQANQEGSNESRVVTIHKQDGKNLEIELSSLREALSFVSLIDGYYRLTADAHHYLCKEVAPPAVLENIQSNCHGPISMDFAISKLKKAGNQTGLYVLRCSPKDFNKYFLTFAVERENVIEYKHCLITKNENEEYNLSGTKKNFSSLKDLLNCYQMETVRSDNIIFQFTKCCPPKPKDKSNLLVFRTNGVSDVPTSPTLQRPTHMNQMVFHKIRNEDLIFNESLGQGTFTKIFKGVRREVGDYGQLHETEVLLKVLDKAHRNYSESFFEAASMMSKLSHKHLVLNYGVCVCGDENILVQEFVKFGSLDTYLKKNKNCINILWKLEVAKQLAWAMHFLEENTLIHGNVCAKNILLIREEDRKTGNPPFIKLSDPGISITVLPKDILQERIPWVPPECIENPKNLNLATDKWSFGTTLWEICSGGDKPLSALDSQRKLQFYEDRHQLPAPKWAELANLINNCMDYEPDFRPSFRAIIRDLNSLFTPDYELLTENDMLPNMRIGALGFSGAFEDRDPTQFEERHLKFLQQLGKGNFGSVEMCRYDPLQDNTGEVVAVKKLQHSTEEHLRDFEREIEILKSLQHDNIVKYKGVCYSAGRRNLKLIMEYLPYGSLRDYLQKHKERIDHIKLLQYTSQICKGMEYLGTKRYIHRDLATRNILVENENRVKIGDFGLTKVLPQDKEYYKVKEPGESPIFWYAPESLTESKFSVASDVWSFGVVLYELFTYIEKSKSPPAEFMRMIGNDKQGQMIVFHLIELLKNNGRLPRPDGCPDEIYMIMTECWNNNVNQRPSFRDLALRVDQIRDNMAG
Sequence of BTK (human) (Q06187 whole entry, looked up): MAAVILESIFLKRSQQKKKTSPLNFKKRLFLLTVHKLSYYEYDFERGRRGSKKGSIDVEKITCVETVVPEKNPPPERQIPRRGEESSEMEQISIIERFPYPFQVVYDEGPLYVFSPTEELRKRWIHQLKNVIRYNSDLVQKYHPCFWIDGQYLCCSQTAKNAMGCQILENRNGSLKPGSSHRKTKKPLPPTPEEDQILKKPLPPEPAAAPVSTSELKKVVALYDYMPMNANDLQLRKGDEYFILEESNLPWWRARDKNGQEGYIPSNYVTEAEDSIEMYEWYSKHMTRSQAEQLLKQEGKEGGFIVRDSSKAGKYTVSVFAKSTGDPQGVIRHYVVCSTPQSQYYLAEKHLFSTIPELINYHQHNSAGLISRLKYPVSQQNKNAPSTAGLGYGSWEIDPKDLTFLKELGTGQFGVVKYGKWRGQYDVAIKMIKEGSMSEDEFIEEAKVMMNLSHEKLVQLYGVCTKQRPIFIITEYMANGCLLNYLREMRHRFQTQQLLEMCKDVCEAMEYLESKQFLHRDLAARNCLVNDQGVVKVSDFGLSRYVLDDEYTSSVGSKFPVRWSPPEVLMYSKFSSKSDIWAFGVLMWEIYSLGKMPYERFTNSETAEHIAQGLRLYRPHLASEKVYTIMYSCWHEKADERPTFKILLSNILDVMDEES
Sequence of BRSK1 (human) (Q8TDC3 whole entry, looked up): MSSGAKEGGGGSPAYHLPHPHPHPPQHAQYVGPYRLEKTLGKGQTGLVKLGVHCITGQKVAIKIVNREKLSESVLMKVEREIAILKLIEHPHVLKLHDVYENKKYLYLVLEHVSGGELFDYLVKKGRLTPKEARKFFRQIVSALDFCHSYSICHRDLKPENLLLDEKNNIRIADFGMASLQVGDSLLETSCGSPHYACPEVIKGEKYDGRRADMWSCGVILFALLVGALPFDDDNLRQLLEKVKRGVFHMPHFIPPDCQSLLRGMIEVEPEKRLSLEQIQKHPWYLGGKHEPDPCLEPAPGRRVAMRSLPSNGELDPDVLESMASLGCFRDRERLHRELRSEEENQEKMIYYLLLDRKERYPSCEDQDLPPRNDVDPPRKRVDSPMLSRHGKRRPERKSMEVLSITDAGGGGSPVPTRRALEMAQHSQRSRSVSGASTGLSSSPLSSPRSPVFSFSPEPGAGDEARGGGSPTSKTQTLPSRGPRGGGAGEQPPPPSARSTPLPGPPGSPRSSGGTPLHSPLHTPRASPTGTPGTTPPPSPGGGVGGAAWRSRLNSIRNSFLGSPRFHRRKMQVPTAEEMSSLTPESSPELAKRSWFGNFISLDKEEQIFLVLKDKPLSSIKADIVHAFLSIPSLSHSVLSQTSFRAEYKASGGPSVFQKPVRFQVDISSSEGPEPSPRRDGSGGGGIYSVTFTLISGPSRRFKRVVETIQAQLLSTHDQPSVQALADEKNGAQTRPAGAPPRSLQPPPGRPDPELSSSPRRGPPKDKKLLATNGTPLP

With `O=C(N[C@@H](COc1ccc2[nH]c(=O)[nH]c2c1)c1ccccc1)c1cccn(Cc2ccc(F)c(F)c2)c1=O` as the compound, how does the residual activity (BRSK1 (human); compound 0.1 µM) read?
Its residual activity is 118%.

What about the residual activity (BRSK1 (human); compound 1.0 µM) of the same compound?
The residual activity was 102%.

What about the residual activity (BRSK1 (human); compound 10.0 µM) of the same compound?
Its residual activity is 92%.

What about the residual activity (BTK (human); compound 0.1 µM) of the same compound?
Its residual activity is 109%.

And the residual activity (BTK (human); compound 1.0 µM)?
The residual activity was 108%.

What about the residual activity (BTK (human); compound 10.0 µM) of the same compound?
Its residual activity is 110%.

What about the residual activity (CAMKK2 (human); compound 1.0 µM) of the same compound?
The residual activity was 104%.

And the residual activity (CAMKK2 (human); compound 10.0 µM)?
The residual activity was 90%.

And the residual activity (CDK2 CCNA2 (human); compound 0.1 µM)?
Its residual activity is 90%.

What about the residual activity (CDK2 CCNA2 (human); compound 1.0 µM) of the same compound?
The residual activity was 91%.

What about the residual activity (CDK2 CCNA2 (human); compound 10.0 µM) of the same compound?
The residual activity was 95%.

What about the residual activity (CSK (human); compound 0.1 µM) of the same compound?
The residual activity was 109%.

And the residual activity (CSK (human); compound 1.0 µM)?
Its residual activity is 98%.

And the residual activity (CSK (human); compound 10.0 µM)?
The residual activity was 101%.

What about the residual activity (CaMK1 (human); compound 0.1 µM) of the same compound?
Its residual activity is 95%.

What about the residual activity (CaMK1 (human); compound 1.0 µM) of the same compound?
The residual activity was 92%.

And the residual activity (CaMK1 (human); compound 10.0 µM)?
The residual activity was 51%.

What about the residual activity (DYRK2 (human); compound 0.1 µM) of the same compound?
The residual activity was 110%.

And the residual activity (DYRK2 (human); compound 1.0 µM)?
Its residual activity is 101%.

What about the residual activity (DYRK2 (human); compound 10.0 µM) of the same compound?
Its residual activity is 83%.

What about the residual activity (EPHA2 (human); compound 1.0 µM) of the same compound?
The residual activity was 102%.

And the residual activity (EPHA2 (human); compound 10.0 µM)?
The residual activity was 86%.

What about the residual activity (EPHA4 (human); compound 0.1 µM) of the same compound?
The residual activity was 95%.

What about the residual activity (EPHA4 (human); compound 1.0 µM) of the same compound?
The residual activity was 113%.

And the residual activity (EPHA4 (human); compound 10.0 µM)?
The residual activity was 107%.

And the residual activity (EPHB2 (human); compound 0.1 µM)?
Its residual activity is 118%.

What about the residual activity (EPHB2 (human); compound 10.0 µM) of the same compound?
The residual activity was 121%.

And the residual activity (ERBB4 (human); compound 0.1 µM)?
Its residual activity is 102%.

And the residual activity (ERBB4 (human); compound 1.0 µM)?
The residual activity was 100%.

What about the residual activity (ERBB4 (human); compound 10.0 µM) of the same compound?
Its residual activity is 98%.

And the residual activity (HIPK3 (human); compound 0.1 µM)?
Its residual activity is 99%.

What about the residual activity (HIPK3 (human); compound 1.0 µM) of the same compound?
Its residual activity is 108%.

What about the residual activity (HIPK3 (human); compound 10.0 µM) of the same compound?
Its residual activity is 91%.

What about the residual activity (INSR (human); compound 0.1 µM) of the same compound?
The residual activity was 99%.

And the residual activity (INSR (human); compound 1.0 µM)?
The residual activity was 95%.

What about the residual activity (INSR (human); compound 10.0 µM) of the same compound?
The residual activity was 93%.

What about the residual activity (INSRR (human); compound 0.1 µM) of the same compound?
Its residual activity is 101%.

And the residual activity (INSRR (human); compound 1.0 µM)?
The residual activity was 114%.

What about the residual activity (INSRR (human); compound 10.0 µM) of the same compound?
Its residual activity is 105%.

What about the residual activity (JAK2 JH1 JH2 (human); compound 0.1 µM) of the same compound?
Its residual activity is 98%.

And the residual activity (JAK2 JH1 JH2 (human); compound 1.0 µM)?
The residual activity was 99%.

And the residual activity (JAK2 JH1 JH2 (human); compound 10.0 µM)?
The residual activity was 101%.

What about the residual activity (LCK (mouse); compound 0.1 µM) of the same compound?
Its residual activity is 109%.

What about the residual activity (LCK (mouse); compound 1.0 µM) of the same compound?
Its residual activity is 101%.

And the residual activity (LCK (mouse); compound 10.0 µM)?
Its residual activity is 91%.

What about the residual activity (MAP2K1 (human); compound 0.1 µM) of the same compound?
The residual activity was 100%.

What about the residual activity (MAP2K1 (human); compound 10.0 µM) of the same compound?
The residual activity was 95%.

And the residual activity (MAPK15 (human); compound 0.1 µM)?
Its residual activity is 92%.

And the residual activity (MAPK15 (human); compound 1.0 µM)?
The residual activity was 89%.

And the residual activity (MAPK15 (human); compound 10.0 µM)?
Its residual activity is 94%.

And the residual activity (MAPKAPK2 (human); compound 0.1 µM)?
The residual activity was 99%.

And the residual activity (MAPKAPK2 (human); compound 1.0 µM)?
Its residual activity is 101%.

And the residual activity (MAPKAPK2 (human); compound 10.0 µM)?
The residual activity was 90%.

What about the residual activity (MARK1 (human)) of the same compound?
The residual activity was 107%.

And the residual activity (MARK2 (human); compound 0.1 µM)?
The residual activity was 105%.

And the residual activity (MARK2 (human); compound 1.0 µM)?
The residual activity was 102%.

And the residual activity (MARK2 (human); compound 10.0 µM)?
Its residual activity is 88%.

What about the residual activity (MINK1 (human); compound 0.1 µM) of the same compound?
The residual activity was 92%.

And the residual activity (MINK1 (human); compound 1.0 µM)?
Its residual activity is 100%.

And the residual activity (MINK1 (human); compound 10.0 µM)?
The residual activity was 87%.

And the residual activity (MKNK1 (human); compound 0.1 µM)?
The residual activity was 106%.

And the residual activity (MKNK1 (human); compound 1.0 µM)?
The residual activity was 99%.

What about the residual activity (MKNK1 (human); compound 10.0 µM) of the same compound?
The residual activity was 99%.

What about the residual activity (MST4 (human); compound 0.1 µM) of the same compound?
The residual activity was 101%.

What about the residual activity (MST4 (human); compound 1.0 µM) of the same compound?
Its residual activity is 117%.

What about the residual activity (MST4 (human); compound 10.0 µM) of the same compound?
Its residual activity is 86%.

And the residual activity (NEK2 (human); compound 0.1 µM)?
Its residual activity is 107%.

What about the residual activity (NEK2 (human); compound 1.0 µM) of the same compound?
Its residual activity is 97%.

What about the residual activity (NEK2 (human); compound 10.0 µM) of the same compound?
The residual activity was 96%.

And the residual activity (NEK6 (human); compound 0.1 µM)?
The residual activity was 104%.

What about the residual activity (NEK6 (human); compound 1.0 µM) of the same compound?
The residual activity was 100%.

What about the residual activity (NEK6 (human); compound 10.0 µM) of the same compound?
Its residual activity is 98%.

What about the residual activity (NUAK1 (human); compound 0.1 µM) of the same compound?
The residual activity was 115%.

What about the residual activity (NUAK1 (human); compound 1.0 µM) of the same compound?
The residual activity was 107%.

And the residual activity (NUAK1 (human); compound 10.0 µM)?
Its residual activity is 98%.

And the residual activity (PAK7 (human); compound 0.1 µM)?
The residual activity was 104%.

And the residual activity (PAK7 (human); compound 1.0 µM)?
Its residual activity is 92%.

What about the residual activity (PAK7 (human); compound 10.0 µM) of the same compound?
The residual activity was 64%.

And the residual activity (PHKG1 (human); compound 0.1 µM)?
Its residual activity is 100%.

And the residual activity (PHKG1 (human); compound 1.0 µM)?
The residual activity was 117%.

What about the residual activity (PRKAA1 or PRKAA2 (rat); compound 0.1 µM) of the same compound?
The residual activity was 97%.

And the residual activity (PRKAA1 or PRKAA2 (rat); compound 1.0 µM)?
The residual activity was 99%.

What about the residual activity (PRKAA1 or PRKAA2 (rat); compound 10.0 µM) of the same compound?
The residual activity was 99%.

And the residual activity (PRKACA (human); compound 0.1 µM)?
The residual activity was 105%.

What about the residual activity (PRKACA (human); compound 1.0 µM) of the same compound?
Its residual activity is 112%.

What about the residual activity (PRKACA (human); compound 10.0 µM) of the same compound?
The residual activity was 111%.

And the residual activity (PRKCA (human); compound 0.1 µM)?
The residual activity was 99%.

What about the residual activity (PRKCA (human); compound 1.0 µM) of the same compound?
Its residual activity is 91%.

And the residual activity (PRKCA (human); compound 10.0 µM)?
Its residual activity is 96%.

What about the residual activity (RIPK2 (human); compound 0.1 µM) of the same compound?
The residual activity was 102%.

And the residual activity (RIPK2 (human); compound 1.0 µM)?
The residual activity was 105%.

What about the residual activity (RIPK2 (human); compound 10.0 µM) of the same compound?
The residual activity was 98%.

And the residual activity (RPS6KA5 KD1 KD2 (human); compound 0.1 µM)?
The residual activity was 101%.

And the residual activity (RPS6KA5 KD1 KD2 (human); compound 1.0 µM)?
The residual activity was 104%.

And the residual activity (RPS6KA5 KD1 KD2 (human); compound 10.0 µM)?
The residual activity was 106%.

And the residual activity (SRPK1 (human); compound 0.1 µM)?
The residual activity was 107%.

What about the residual activity (SRPK1 (human); compound 1.0 µM) of the same compound?
Its residual activity is 114%.

What about the residual activity (SRPK1 (human); compound 10.0 µM) of the same compound?
Its residual activity is 101%.
